Measurements: PubChem BioAssay (NCI)
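1) Cells in 96-well plates. 2) Compound, 48 h, 5 concentrations. 3) Linear interpolation between surrounding doses. 4) Unreached endpoint = highest concentration. Here, GI50 denotes the concentration required for 50% inhibition of growth. TGI denotes the concentration required for complete inhibition of growth.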

Tests used:
Test in all cases: NCI anticancer screen, dose series, 48 h
[1] = test system: 786-0 renal
[2] = test system: A498 renal
[3] = test system: A549 NSCLC
[4] = test system: ACHN renal
[5] = test system: BT-549 breast
[6] = test system: CAKI-1 renal
[7] = test system: CCRF-CEM leukemia
[8] = test system: COLO 205 colon
[9] = test system: DU-145 prostate
[10] = test system: EKVX NSCLC
[11] = test system: HCC-2998 colon
[12] = test system: HCT-116 colon
[13] = test system: HCT-15 colon
[14] = test system: HL-60(TB) leukemia
[15] = test system: HOP-62 NSCLC
[16] = test system: HOP-92 NSCLC
[17] = test system: HS 578T breast
[18] = test system: HT29 colon
[19] = test system: IGROV1 ovarian
[20] = test system: K-562 leukemia
[21] = test system: KM12 colon
[22] = test system: LOX IMVI melanoma
[23] = test system: M14 melanoma
[24] = test system: MALME-3M melanoma
[25] = test system: MCF7 breast
[26] = test system: MDA-MB-231 breast
[27] = test system: MDA-MB-435
[28] = test system: MOLT-4 leukemia
[29] = test system: NCI-H226 lung
[30] = test system: NCI-H23 lung
[31] = test system: NCI-H460 lung
[32] = test system: NCI-H522 lung
[33] = test system: NCI/ADR-RES ovarian
[34] = test system: OVCAR-4 ovarian
[35] = test system: OVCAR-5 ovarian
[36] = test system: OVCAR-8 ovarian
[37] = test system: PC-3 prostate
[38] = test system: RPMI-8226 leukemia
[39] = test system: RXF 393 renal
[40] = test system: SF-268 CNS
[41] = test system: SF-295 CNS
[42] = test system: SF-539 CNS
[43] = test system: SK-MEL-2 melanoma
[44] = test system: SK-MEL-28 melanoma
[45] = test system: SK-MEL-5 melanoma
[46] = test system: SK-OV-3 ovarian
[47] = test system: SN12C renal
[48] = test system: SNB-19 CNS
[49] = test system: SNB-75 CNS
[50] = test system: SR leukemia
[51] = test system: SW-620 colon
[52] = test system: T-47D breast
[53] = test system: TK-10 renal
[54] = test system: U251 CNS
[55] = test system: UACC-257 melanoma
[56] = test system: UACC-62 melanoma
[57] = test system: UO-31 renal

Oc1cccc2ccc(-c3nnc(SCc4ccc(O)c5ncccc45)o3)nc12
GI50 [1]: 627 nM | TGI [1]: > 100000 nM | GI50 [2]: 1200 nM | TGI [2]: 7320 nM | GI50 [3]: 204 nM | TGI [3]: > 100000 nM | GI50 [4]: 419 nM | TGI [4]: > 100000 nM | GI50 [5]: 110 nM | TGI [5]: > 20700 nM | GI50 [6]: 428 nM | TGI [6]: > 100000 nM | GI50 [7]: 329 nM | TGI [7]: > 100000 nM | GI50 [8]: 1730 nM | TGI [8]: 4960 nM | GI50 [9]: 117 nM | TGI [9]: > 100000 nM | GI50 [10]: 807 nM | TGI [10]: > 100000 nM | GI50 [11]: 643 nM | TGI [11]: > 100000 nM | GI50 [12]: 71 nM | TGI [12]: > 100000 nM | GI50 [13]: 158 nM | TGI [13]: > 100000 nM | GI50 [14]: 583 nM | TGI [14]: > 100000 nM | GI50 [15]: 369 nM | TGI [15]: > 40200 nM | GI50 [16]: 173 nM | TGI [16]: 707 nM | GI50 [17]: 181 nM | GI50 [18]: 4910 nM | TGI [18]: > 100000 nM | GI50 [19]: 457 nM | TGI [19]: > 100000 nM | GI50 [20]: 147 nM | TGI [20]: > 100000 nM | GI50 [21]: 432 nM | TGI [21]: > 100000 nM | GI50 [22]: 120 nM | TGI [22]: > 100000 nM | GI50 [23]: 332 nM | TGI [23]: 79500 nM | GI50 [24]: 365 nM | TGI [24]: 3810 nM | GI50 [25]: 367 nM | TGI [25]: > 32400 nM | GI50 [26]: 1650 nM | TGI [26]: > 100000 nM | GI50 [27]: 294 nM | TGI [27]: > 100000 nM | GI50 [28]: 457 nM | TGI [28]: > 100000 nM | GI50 [29]: 2410 nM | TGI [29]: > 100000 nM | GI50 [30]: 268 nM | TGI [30]: > 100000 nM | GI50 [31]: 39.3 nM | TGI [31]: 11400 nM | GI50 [32]: 440 nM | TGI [32]: 5540 nM | GI50 [33]: 696 nM | TGI [33]: > 100000 nM | GI50 [34]: 2000 nM | TGI [34]: > 100000 nM | GI50 [35]: 2170 nM | TGI [35]: > 100000 nM | GI50 [36]: 302 nM | TGI [36]: > 100000 nM | GI50 [37]: 175 nM | TGI [37]: > 100000 nM | GI50 [38]: 266 nM | TGI [38]: > 100000 nM | GI50 [39]: 350 nM | TGI [39]: > 24500 nM | GI50 [40]: 226 nM | TGI [40]: > 100000 nM | GI50 [41]: 315 nM | TGI [41]: > 25700 nM | GI50 [42]: 275 nM | TGI [42]: > 100000 nM | GI50 [43]: 513 nM | TGI [43]: 2700 nM | GI50 [44]: 492 nM | TGI [44]: > 100000 nM | GI50 [45]: 326 nM | TGI [45]: 1550 nM | GI50 [46]: 761 nM | TGI [46]: 5280 nM | GI50 [47]: 280 nM | TGI [47]: > 100000 nM | GI50 [48]: 273 nM | TGI [48]: > 100000 nM | GI50 [49]: 177 nM | TGI [49]: > 22600 nM | GI50 [50]: 338 nM | TGI [50]: > 100000 nM | GI50 [51]: 452 nM | TGI [51]: > 100000 nM | GI50 [52]: 428 nM | TGI [52]: > 100000 nM | GI50 [53]: 1990 nM | TGI [53]: > 27100 nM | GI50 [54]: 103 nM | TGI [54]: > 100000 nM | GI50 [55]: 413 nM | TGI [55]: 4510 nM | GI50 [56]: 467 nM | TGI [56]: 19700 nM | GI50 [57]: 299 nM | TGI [57]: 7240 nM
